Test results reported in PMC3127123, “Effect of 2-Hydroxypropyl-β-cyclodextrin on Solubility of Sparingly Soluble Drug Derivatives of Anthranilic Acid” (International Journal of Molecular Sciences, 2011).
Values after ≈ are worked out from the molar mass of the structure shown. Read-outs that look alike come from different tables or passages of the source.

How the values were obtained:
[1] = Phase solubility study: drug solubility in buffer solutions by UV-vis spectrophotometry; format: physicochemical; conditions: buffer solution without cyclodextrin, thermodynamic from solid, no cyclodextrin, read-out: solubility (C) in water (buffer solution), CD
Procedure: The calibration curves are included in these figures. The absorption spectra were recorded in the range of 190–350 nm and for the calculation of […] the change of absorption was measured at 340 nm (pH 7.0), 195 nm (pH 2.0) for MEF; 245 nm (pH 7.0), and 250 nm (pH 2.0) for NIF and 255 nm (pH 7.0), and 225 nm (pH 2.0) for FLU, respectively.
The UV-Vis spectrophotometer (Perkin–Elmer Life and Analytical Sciences, Shelton, USA) was used to determine the 2HP-β-CD influence on drug solubility. Maximum drug concentration was measured at different cyclodextrins concentrations, temperatures and pHs. Samples contained buffer solution with pH 7 or 2, 2HP-β-CD in different concentrations, i.e., 0, 1, 2, 4, 7 or 10 mmol·dm^−3 and drug in excess. Samples were thermostated and mixed for 20 hours and then left for 4 hours for separation. The uncertainties of the temperature measurements were judged to be 0.1 K. Absorbance of each sample was measured with the UV-vis spectrophotometer.
The stability constants were determined by the measurements of the concentration of the drug in the sample as a function of the cyclodextrin concentration. Such a method is usually called “Phase solubility study” [31]. In this method complex stability constants are calculated from the obtained solubility data using a spectophotometric method. As a reference sample, the buffer + 2HP-β-CD solutions were used. Two buffers were prepared (mol concentration) i.e., potassium dihydrogen phosphate (0.008), disodium hydrogen phosphate (0.008; buffer, pH = 7.0), potassium dihydrogen phosphate (0.05), hydrochloric acid (0.05, buffer, pH = 2.0). Samples were scanned with a scan step of 1 nm from 650 to 190 nm. Measurements at pH = 10 were not performed in all systems, because of the necessity of using too high drug concentrations and because of problems with separation of two phases.

[2] = Phase solubility study: effect of 2HP-β-CD on drug solubility and cyclodextrin-drug complex stability/dissociation constants; format: physicochemical; conditions: for cyclodextrin-drug complex stability constant Ks: 1:1 complex, Higuchi-Connors; for Kd: Kd = 1/Ks, value is Kd multiplied by 10^3, read-out: dissociation constant Kd·10^3; for solubility enhance ratio (R): drug concentration at highest 2HP-β-CD concentration relative to no cyclodextrin; for stability constant log Ks: pH = 7, T = 298.15 K, our value, phase solubility
Procedure: Solubility enhance ratio, R, was calculated as a drug concentration at the highest cyclodextrin concentration with relation to drug concentration in the absence of cyclodextrin. […] The opposite effect is observed for NIF. […] In general, when the solubility of the drug is very low, the solubility enhance ratio, R is high. Substitution of hydroxyl groups surrounding the 2HP-β-CD rim by the hydroxypropyl group promotes the complex formation process for drug derivatives of anthranilic acid with polar carboxylic substituent. […] Measurements of cyclodextrin-drug complex stability constants Ks and dissociation constants Kd are very important since these values indicate changes in physicochemical properties of a compound upon inclusion. Linear dependence of drug concentration to cyclodextrin concentration, with slope ratio below one usually assumes 1:1 ratio of complex. The stability constant, Ks, for complexes with 1:1 ratio is represented by: (1) Ks=[CD]/[D]⋅[C] Where: [D] is pure drug concentration, [C] is pure cyclodextrin concentration, and [CD] is concentration of drug-cyclodextrin complexes in solution. Complex dissociation constant, Kd, is represented by: […] For such systems, stability constant can be obtained by the following equation, investigated previously by Higuchi and Connors, 1965 [25]: (3) Ks=K1:1=slope/c0⋅(1−slope) […] Maximum drug concentration was measured at different cyclodextrins concentrations, temperatures and pHs. […] Samples were thermostated and mixed for 20 hours and then left for 4 hours for separation. The uncertainties of the temperature measurements were judged to be 0.1 K. Absorbance of each sample was measured with the UV-vis spectrophotometer. The stability constants were determined by the measurements of the concentration of the drug in the sample as a function of the cyclodextrin concentration. Such a method is usually called “Phase solubility study” [31]. In this method complex stability constants are calculated from the obtained solubility data using a spectophotometric method. As a reference sample, the buffer + 2HP-β-CD solutions were used. Two buffers were prepared (mol concentration) i.e., potassium dihydrogen phosphate (0.008), disodium hydrogen phosphate (0.008; buffer, pH = 7.0), potassium dihydrogen phosphate (0.05), hydrochloric acid (0.05, buffer, pH = 2.0). Samples were scanned with a scan step of 1 nm from 650 to 190 nm. Measurements at pH = 10 were not performed in all systems, because of the necessity of using too high drug concentrations and because of problems with separation of two phases.

[3] = Thermodynamic parameters of complexation from temperature dependence of stability constant (van't Hoff); format: physicochemical; conditions: T = 298.15 K, pH = 7 (buffer solution)
Excerpt: Thermodynamic parameters of reactions i.e. the free energy change (ΔG), the enthalpy change (ΔH) and the entropy change (ΔS), can be obtained from the temperature dependence of stability constant.

[4] = cited from earlier work
[5] = T = 298.15 K, cited from earlier work
[6] = set-up: method as in earlier work; conditions: aqueous ethanol; cited from earlier work
[7] = pH 2, aqueous buffer, pH 2, T = 298.15 K
[8] = pH 2, aqueous buffer, pH 2, T = 310.15 K
[9] = pH 7, aqueous buffer, pH 7, T = 298.15 K
[10] = pH 7, aqueous buffer, pH 7, T = 310.15 K
[11] = previous work, densimetry and 1H NMR measurements

O=C(O)c1ccccc1Nc1cccc(C(F)(F)F)c1 [Flufenamic acid]
solubility at 20 h [1, 7]: 6 µM (≈ 1.69 µg/mL) | solubility at 20 h [1, 8]: 15 µM (≈ 4.22 µg/mL) | solubility at 20 h [1, 9]: 228 µM (≈ 64.1 µg/mL) | solubility at 20 h [1, 10]: 298 µM (≈ 83.8 µg/mL) | cyclodextrin-drug complex stability constant Ks ([2]; pH 2, T = 298.15 K): 3055 M⁻¹ | Kd ([2]; pH 2, T = 298.15 K): 0.33 mM | solubility enhance ratio (R) ([2]; pH 2, T = 298.15 K): 31.0 | cyclodextrin-drug complex stability constant Ks ([2]; pH 2, T = 310.15 K): 1850 M⁻¹ | Kd ([2]; pH 2, T = 310.15 K): 0.54 mM | solubility enhance ratio (R) ([2]; pH 2, T = 310.15 K): 19.0 | cyclodextrin-drug complex stability constant Ks ([2]; pH 7, T = 298.15 K): 202 M⁻¹ | Kd ([2]; pH 7, T = 298.15 K): 4.95 mM | solubility enhance ratio (R) ([2]; pH 7, T = 298.15 K): 2.9 | cyclodextrin-drug complex stability constant Ks ([2]; pH 7, T = 310.15 K): 218 M⁻¹ | Kd ([2]; pH 7, T = 310.15 K): 4.59 mM | solubility enhance ratio (R) ([2]; pH 7, T = 310.15 K): 3.0 | stability constant log Ks [2]: 2.30 | entropy change (ΔS) of complexation [3]: 50.2 J·mol^−1·K^−1 | stability constant log Ks ([4]; phase-solubility diagrams, pH = 6.75, T = 298.15 K): 2.36 | solubility in water [5]: 2.38 × 10^−2 mmol·dm^−3

Cc1cccc(Nc2ccccc2C(=O)O)c1C [Mefenamic acid]
solubility at 20 h [1, 7]: 1 µM (≈ 0.241 µg/mL) | solubility at 20 h [1, 8]: 1 µM (≈ 0.241 µg/mL) | solubility at 20 h [1, 9]: 155 µM (≈ 37.4 µg/mL) | solubility at 20 h [1, 10]: 220 µM (≈ 53.1 µg/mL) | cyclodextrin-drug complex stability constant Ks ([2]; pH 2, T = 298.15 K): 539 M⁻¹ | Kd ([2]; pH 2, T = 298.15 K): 1.86 mM | solubility enhance ratio (R) ([2]; pH 2, T = 298.15 K): 6.4 | cyclodextrin-drug complex stability constant Ks ([2]; pH 2, T = 310.15 K): 1627 M⁻¹ | Kd ([2]; pH 2, T = 310.15 K): 0.62 mM | solubility enhance ratio (R) ([2]; pH 2, T = 310.15 K): 17.3 | cyclodextrin-drug complex stability constant Ks ([2]; pH 7, T = 298.15 K): 383 M⁻¹ | Kd ([2]; pH 7, T = 298.15 K): 2.61 mM | solubility enhance ratio (R) ([2]; pH 7, T = 298.15 K): 4.6 | cyclodextrin-drug complex stability constant Ks ([2]; pH 7, T = 310.15 K): 562 M⁻¹ | Kd ([2]; pH 7, T = 310.15 K): 1.78 mM | solubility enhance ratio (R) ([2]; pH 7, T = 310.15 K): 6.0 | entropy change (ΔS) of complexation [3]: −33.0 J·mol^−1·K^−1 | free energy change (ΔG) of complexation [3]: -3.51 kcal/mol | solubility in water ([5]; pH between 3 and 6): 0.87 × 10^−4 mmol·dm^−3

O=C(O)c1cccnc1Nc1cccc(C(F)(F)F)c1 [Niflumic acid]
solubility at 20 h [1, 7]: 698 µM (≈ 197 µg/mL) | solubility at 20 h [1, 8]: 925 µM (≈ 261 µg/mL) | solubility at 20 h [1, 9]: 5750 µM (≈ 1620 µg/mL) | solubility at 20 h [1, 10]: 8170 µM (≈ 2310 µg/mL) | cyclodextrin-drug complex stability constant Ks ([2]; pH 2, T = 298.15 K): 26 M⁻¹ | Kd ([2]; pH 2, T = 298.15 K): 38.9 mM | solubility enhance ratio (R) ([2]; pH 2, T = 298.15 K): 1.3 | cyclodextrin-drug complex stability constant Ks ([2]; pH 2, T = 310.15 K): 33 M⁻¹ | Kd ([2]; pH 2, T = 310.15 K): 29.2 mM | solubility enhance ratio (R) ([2]; pH 2, T = 310.15 K): 1.3 | cyclodextrin-drug complex stability constant Ks ([2]; pH 7, T = 298.15 K): 96 M⁻¹ | Kd ([2]; pH 7, T = 298.15 K): 10.4 mM | solubility enhance ratio (R) ([2]; pH 7, T = 298.15 K): 1.6 | cyclodextrin-drug complex stability constant Ks ([2]; pH 7, T = 310.15 K): 82 M⁻¹ | Kd ([2]; pH 7, T = 310.15 K): 12.2 mM | solubility enhance ratio (R) ([2]; pH 7, T = 310.15 K): 1.5 | stability constant log Ks [2]: 1.98 | enthalpy change (ΔH) of complexation [3]: -2.39 kcal/mol | entropy change (ΔS) of complexation [3]: 4.3 J·mol^−1·K^−1 | free energy change (ΔG) of complexation [3]: -2.7 kcal/mol | stability constant log Ks ([4]; 1H NMR, pH = 7.4, T = 298.15 K): 2.3 | free energy change (ΔG) of complexation ([4]; T = 298.15 K, pH = 7.4): -2.94 kcal/mol | stability constant log Ks ([4]; UV-vis, pH = 7.4, T = 298.15 K): 3.09 | stability constant log Ks ([4]; calorimetric measurements, pH = 7.4, T = 298.15 K): 2.2 | stability constant log Ks ([4]; densimetry, pH = 7.4, T = 298.15 K): 2.8 | stability constant log Ks ([4]; pH = 7, T = 298.15 K, cyclodextrin not named at the place): 2.72 | stability constant log Ks ([4]; pH = 12, T = 298.15 K, cyclodextrin not named at the place): 2.53 | enthalpy of complexation [4, 11]: -4.8 kcal/mol | entropy of complexation [4, 11]: negative

Oc1cc(Cl)ccc1Oc1ccc(Cl)cc1Cl [triclosan]
solubility increase on complexation with 2HP-β-CD [6]: 70 fold
